Source: ChEMBL document CHEMBL3861944 (Medchemcomm, 2016)

How the values were obtained:
THP-1 [1] = experiment: Pro-apoptotic activity in human THP1 cells assessed as late apoptotic cells at 1 uM after 24 hrs by annexin V/propidium iodide staining-based flow cytometric method (reference value: 0.4 +/- 0.1%); format: functional
[2] = Cell cycle arrest in human AsPC1 cells assessed as accumulation at G2/M phase at 50 uM after 24 hrs by flow cytometric method (reference value: 29 +/- 5%); format: functional, cell-based
ASPC1 [3] = experiment: Pro-apoptotic activity in human AsPC1 cells assessed as late apoptotic cells at 30 uM after 24 hrs by annexin V/propidium iodide staining-based flow cytometric method (reference value: 0.8 +/- 0.1%); format: functional
THP-1 [4] = experiment: Pro-apoptotic activity in human THP1 cells assessed as late apoptotic cells at 0.5 uM after 24 hrs by annexin V/propidium iodide staining-based flow cytometric method (reference value: 0.4 +/- 0.1%); format: functional
[5] = Cell cycle arrest in human AsPC1 cells assessed as accumulation at S phase at 100 uM after 24 hrs by flow cytometric method (reference value: 23 +/- 3%); format: functional, cell-based
ASPC1 [6] = experiment: Pro-apoptotic activity in human AsPC1 cells assessed as early apoptotic cells at 10 uM after 24 hrs by annexin V/propidium iodide staining-based flow cytometric method (reference value: 0.8 +/- 0.1%); format: functional
[7] = Cell cycle arrest in human AsPC1 cells assessed as accumulation at G2/M phase at 1 uM after 24 hrs by flow cytometric method (reference value: 29 +/- 5%); format: functional, cell-based
THP-1 [8] = experiment: Pro-apoptotic activity in human THP1 cells assessed as necrotic cells at 1 uM after 24 hrs by annexin V/propidium iodide staining-based flow cytometric method relative to control; format: functional

## NC(=[Se])N/N=C/c1cccc2cccnc12
THP-1 [1]
  Activity: 2%
[2]
  Activity: 8.6%
ASPC1 [3]
  Activity: 1.1%
THP-1 [4]
  Activity: 2%
[5]
  Activity: 18.8%
ASPC1 [6]
  Activity: 0.4%
[7]
  Activity: 10.6%
THP-1 [8]
  Activity: 0.4%
